From patent US10351560B2, “Crystalline forms” (IDORSIA PHARMACEUTICALS LTD, priority 2015, dated 2019)

Columns and labels:
[1] = Gravimetric vapour sorption (GVS) analysis; assay type: physicochemical; settings: 25° C., mass change between 20% and 80% RH in first adsorption scan; mass change larger then 0.2% and smaller then 2%
Protocol: Gravimetric Vapour Sorption (GVS) Analysis
Measurements were performed on a multi sample instrument SPS-100n (Projekt Messtechnik, Ulm, Germany) operated in stepping mode at 25° C. The sample was allowed to equilibrate at 40% RH before starting a pre-defined humidity program (40-0-95-0-95-40% RH, steps of 5% ΔRH and with a maximal equilibration time of 24 hours per step were applied. About 20 to 30 mg of each sample was used. The hygroscopic classification is done according to the European Pharmacopeia Technical Guide (1999, page 86), e.g., slightly hygroscopic: increase in mass is less than 2% and equal to or greater than 0.2% mass/mass; hygroscopic: increase in mass is less than 15% and equal to or greater than 2% mass/mass. The mass change between 20% relative humidity and 80% relative humidity in the first adsorption scan is considered.

[2] = system: primary cultured rat hepatocytes; experiment: In vitro cytotoxicity in primary cultured rat hepatocytes; assay type: cell-based; settings: for NoEC (no effect concentration) / LCC (lowest cytotoxic concentration): 24 h treatment, highest test concentration 300 μM; for NoEC (no effect concentration): morphology and LDH leakage; for LCC (lowest cytotoxic concentration): morphology grading ≥2 or ≥2-fold increase in LDH leakage
Excerpt: In Vitro Cytotoxicity in Primary Cultured Rat Hepatocytes
Adult male Wistar rats were narcotized with sodium pentobarbital and hepatocytes were isolated according to a standard procedure, i.e. by in situ perfusion of the liver with a collagenase solution. The viability of the purified hepatocytes, checked by the trypan blue dye exclusion method was greater than 85%. The isolated hepatocytes were resuspended in standard Williams Medium E, without phenol red, supplemented (WME supp.) with transferrin (100 μg/ml), triiodothyronine (10 μg/ml), gentamicin (50 μg/ml), hydrocortison hemisuccinate (13.36 μg/ml), glucagon (5 μg/ml), HEPES (10 mM), inosin (10 μg/ml), insulin (10 μg/ml), streptomycin (100 μg/ml) and penicillin (100 U/ml) and 10% fetal bovine serum (FBS). The cells were plated in collagen-coated 24-well plates at an initial density of 2×10^5 cells/well. After 4 h for attachment to the culture-plates, the medium was aspirated and replaced by fresh WME supp. without FBS containing the test compounds and incubated for 24 h at 37° C. in a […] and 5% CO2 atmosphere. For each experiment, i.e., with each batch of hepatocytes, treatments with the test compounds were done in quadriplicate. Quadriplicate controls (treatment with the vehicle only) were also present on each culture plate.
Stock solutions of the test compounds were prepared in DMSO a few hours before treatment start. Appropriate dilutions of these stock solutions were added to the culture media just prior to the treatment in order to give final concentrations of 0, 3, 10, 30, 100 and 300 μM. The final concentration of the vehicle DMSO was 1% (v/v).
The morphology of the hepatocyte monolayers was monitored by light microscopy after 24 hours of exposure to the test compounds. Treatment related effects are described according to the following grading: • 0 No morphological alterations observed upon treatment when compared to the control cultures • 1-3 Treatment resulting in any morphological changes, e.g. intracellular granulation, vacuolization or cell death. Depending on the severity, these changes were regarded as slight (1), moderate (2) or strong (3). • K Treatment resulting in 100% dead cells and/or the complete detachment of the monolayer yielding a clear cell-free dish.
After 24 h treatment of the hepatocyte cultures, aliquots of culture medium were carefully collected and used for the analysis of lactate dehydrogenase (LDH) activity by spectrophotometry using the LDH cytotoxicity detection kit from Clontech (cat No. 630117, Mountain View, Calif., USA). For each experiment, additional cultures were used for the determination of total intracellular LDH activity at treatment start. For this purpose, 4 wells of cell culture per experiment were washed with cold saline before treatment start, sonicated in fresh medium and the homogenate was analyzed for total LDH activity. Enzyme activities in the culture media were assessed and expressed as percentage of the total activity present in the cultured hepatocytes at the beginning of the treatments.
The lowest cytotoxic concentration (LCC) and the no effect concentration (NoEC) are given for each compound, based on cell morphology and LDH leakage after 24 h treatment. LCC is defined as the lowest concentration of the test compound leading to a clear effect on the cultured rat hepatocytes (morphology grading ≥2 or ≥2-fold increase in LDH leakage). […]

[3] = system: eosinophils (PGD2-induced shape change); experiment: Eosinophil shape change assay with human plasma; assay type: cell-based; settings: 50% human plasma, PGD2 100 nM activation, read-out: Antagonistic activity IC50
Protocol: Eosinophil Shape Change Assay with Human Plasma After obtaining informed consent, blood samples were drawn by venipuncture according to the protocol approved by the ethics committee of Basel, Switzerland. Polymorphonuclear leukocytes (containing eosinophils, basophils and neutrophils) were isolated using the Polymorphprep™ method (Axis-Shield). In brief, anticoagulated whole blood was layered onto a Polymorphprep gradient (density 1.113 g/ml) and centrifuged at 500 g for 30 min. The polymorphonuclear cell fraction was harvested and depleted for erythrocytes by hypotonic saline lysis. […]
Immediately after fixation with paraformaldehyde, the samples were analyzed by FACSCanto flow cytometer (BD Biosciences) and target cells were identified by their forward-scatter (FSC) and side-scatter (SSC) characteristics. […] Shape change responses, indicative of eosinophil activation, were quantified as the percent of cells with an increased forward-scatter.

SMILES | Hygroscopicity [1] | NoEC (no effect concentration) [2] [µM] | LCC (lowest cytotoxic concentration) [2] [µM] | IC50 [3] [nM] | properties in in-vitro cytotoxicity assay (in words) ([2]; summary statement)
CN(c1ncc(Cl)cn1)[C@H]1CCc2c(c3nc(F)ccc3n2CC(=O)O)C1 [COMPOUND in crystalline form 1, (S)-2-(8-((5-chloropyrimidin-2-yl)(methyl)amino)-2-fluoro-6,7,8,9-tetrahydro-5H-pyrido[3,2-b]indol-5-yl)acetic acid] | Slightly hygroscopic (mass change larger | – | – | – | –
CN(c1ncc(Cl)cn1)[C@H]1CCc2c(c3cc(F)ccc3n2CC(=O)O)C1 [example 9 from WO 2011/117798, reference compound] | – | 30 | 300 | – | –
CN(c1ncc(Cl)cn1)[C@H]1CCc2c(c3nc(F)ccc3n2CC(=O)O)C1 [COMPOUND, (S)-2-(8-((5-chloropyrimidin-2-yl)(methyl)amino)-2-fluoro-6,7,8,9-tetrahydro-5H-pyrido[3,2-b]indol-5-yl)acetic acid] | – | >300 | >300 | 3.1 | significantly improved properties
